This is an account of results in patent US10981911B2, “Imidazopyrrolopyridine as inhibitors of the JAK family of kinases” (Janssen Pharmaceutica NV, priority 2016, dated 2021).

A word on the solubility: it is the dissolved amount per volume that the medium holds. As a reminder, the Papp A→B is the apparent permeability from the apical to the basolateral side of a cell layer. In general, Papp B→A refers to how fast a substance crosses the layer from the basolateral side.

SMILES strings stand for the structures. Like-named read-outs stand apart in the source and are kept apart here.

Series [1] can be described thus: In vivo p.o. dosing: plasma and colon tissue concentrations (Protocols 1 and 2). Set-up: species or system female C57BL/6 mice. The following applies: female, C57BL/6, mouse, po, mice, 25 mg/kg p.o. Here is the method:
These protocols are described below under the heading In vivo Studies. Three non-fasted female C57BL/6 mice were orally administered test compound at a dose of 25 mg/kg p.o. as a solution in 20% hydroxypropyl-beta-cyclodextrin (HPβCD) at a dose volume of 5 mL/kg. Blood samples were collected at 0.5, 2, and 4 h post dose via retro-orbital bleed or venipuncture of the dorsal metatarsal vein. Blood samples were collected into tubes containing anticoagulant (Heparin-Na) and placed on wet ice. The plasma fraction was separated by centrifugation and frozen at −20° C. for up to 4 h and −80° C. after 4 h unless analyzed shortly after sample collection. Colon samples were collected at 4 h post dose. […] The colon was further washed by putting it in 5 mL of saline and shaken for 5 seconds. The colon sample was then patted dry, weighed, and homogenized as 1 part tissue (g) to 4 parts HPLC grade water (mL). Concentrations of the compound in plasma and colon homogenate were determined using a qualified liquid chromatography-triple quadrupole mass spectrometry (LC-MS/MS) method. […] Three non-fasted female C57BL/6 mice were orally administered test compound at a dose of 25 mg/kg p.o. as a solution in 20% HPβCD at a dose volume of 5 mL/kg. Blood samples were collected at 0.5, 2, and 4 h post dose via retro-orbital bleed or dorsal metatarsal vein. Blood samples were collected into tubes containing anticoagulant (Heparin-Na) and placed on wet ice. The plasma fraction was separated by centrifugation and frozen at −20° C. for up to 4 h and −80° C. after 4 h unless analyzed shortly after sample collection. Colon samples were collected at 4 h post dose. From 2 cm below the cecum, a 4 cm sample of the colon was dissected, cut open on the longitudinal axis, and the solid contents removed by flushing with 2 mL of saline. The colon was further washed by putting it in 5 mL of saline and shaken for 5 seconds. The colon sample was then patted dry, weighed, and homogenized as 1 part tissue (g) to 4 parts HPLC grade water (mL). Concentrations of the compound in plasma and colon homogenate were determined using a qualified liquid chromatography-triple quadrupole mass spectrometry (LC-MS/MS) method.

Series [2] is described as follows: Solubility assays in simulated gastric and simulated intestinal fluids. The following applies: thermodynamic from solid, 2-5 days. The series is classed as physicochemical. Here is the method:
Test compounds were dissolved in DMSO at a concentration of 10 mM. The test compounds were dispensed (20 μL) into Nunc 1-mL-96-Deep-Well-PP plates, and the DMSO was evaporated via nitrogen blow down from a TurboVap 96 for 6 hours or until a dry residue was produced. Then, 400 μL of solubility media was added to the well containing the dry solid. […] After the incubation period, the samples were filtered through an AcroPrep 1-mL-96-Filter plate into a new 2-mL-96-Deep-Well-PP plate, and the supernatants were quantified by UV-HPLC using a 3-point calibration ranging from 0.004-0.55 mM. The solubility for each compound was calculated from the following equation: […] Solubilities are reported as long as the compound under study was sufficiently stable to complete the corresponding solubility determination.

The subject of series [3] is P-gp (MDR1). The series can be described thus: MDCK-MDR1 permeability assay. It counts as in vitro ADME. The following applies: dog, MDCK-MDR1, pH 7.4, @ 5 μM; for Papp A→B at 60 min, 5 μM: apical to basolateral, without P-gp inhibitor; for Papp B→A at 60 min, 5 μM: basolateral to apical. Here is the method:
Permeability measurements were conducted according to the Cyprotex protocol using the MDCK-MDR1 cell line obtained from the NIH (Rockville, Md., USA). Cells between passage numbers 6-30 were seeded onto a Multiscreen Plate™ (Millipore) at a cell density of 3.4×10^5 cells/cm^2 and cultured for three days before permeability studies were conducted. The cells in this assay form a cohesive sheet of a single cell layer filing the surface area of the culture dish, also known as a confluent monolayer, and on day four the test compound was added to the apical side of the membrane and the transport of the compound across the monolayer was monitored over a time period of 60 min.
Test compounds were dissolved in DMSO at a concentration of 10 mM. The dosing solutions were prepared by diluting test compound with assay buffer (Hanks Balanced Salt Solution), pH 7.4, at a final concentration of 5 μM. For assessment of apical to basolateral (“A-B”) permeability, buffer was removed from the apical compartment and replaced with test compound dosing solution with or without the permeability glycoprotein (“PgP”, “P-gP”, “Pgp” or “P-gp”) inhibitor elacridar (2 μM). For assessment of basolateral to apical (“B-A”) permeability, buffer was removed from the companion plate and replaced with test compound dosing solution. Incubations were carried out in duplicate at 37° C. in an atmosphere of 5% CO2 with a relative humidity of 95%. Each assay included the reference markers propranolol (high permeability) and prazosin (PgP substrate). After incubation for 60 minutes, apical and basolateral samples were diluted and test compounds quantified by LC/MS/MS using an 8-point calibration in the range 0.0039 to 3 μM with appropriate dilution of the samples (receiver dilution factor=1; donor and C0 dilution factor=10). The permeability coefficient (Papp) for each compound was calculated from the following equation: Papp=(dQ/dt)/(C0×S), where dQ/dt is the rate of permeation of the drug across the cells, C0 is the donor compartment concentration at time zero, and S is the area of the cell monolayer.
The second and third columns in Table 7 show the values of Papp(A-B) for the apical-to-basolateral compound transport without (second column) and with a P-gp inhibitor (third column, noted as P^eapp(A-B)) that was elacridar. Papp(A-B) gives an indication of permeation extent across the cells in this assay, which is envisaged to model the transcellular transport across Pgp-expressing cells, such as Pgp-expressing gastrointestinal tract cells. P^eapp(A-B) values (Papp(A-B) in the presence of the P-gp inhibitor) given in column 3 are determined to confirm the role of P-gp in the compound efflux. […] Test compound efflux ratios are given in the fifth column of Table 7 as Papp(B-A)/Papp(A-B) by using the corresponding permeability coefficient values from the fourth and second columns in the same table.

[4] abbreviates: colon, read-out: Colon Concentration After p.o. Dosing, Mean.
Where [5] appears, read: fassif, simulated intestinal fluid, fasted state pH 6.5, ambient temperature, read-out: SIF solubility.
[6] abbreviates: simulated gastric fluid, ambient temperature, read-out: SGF solubility.

For the molecule `Cn1cc(NC(=O)Cc2nc3cnc4[nH]ccc4c3n2[C@H]2CC[C@H](CC#N)CC2)cn1` [Ex. 38, 2-(1-((1r,4r)-4-(Cyanomethyl)cyclohexyl)-1,6-dihydroimidazo[4,5-d]pyrrolo[2,3-b]pyridin-2-yl)-N-(1-methyl-1H-pyrazol-4-yl)acetamide], the concentration at 4 h stood at 7680 ng/g in series [1] (setting [4]) and 3.9 ng/mL in series [1] (plasma, read-out: Plasma Concentration After p.o. Dosing, Mean). In addition, the concentration at 0.5 h in series [1] (plasma, Time = 0.5 h, read-out: Plasma Concentration After p.o. Dosing, Mean) was found to be 15.1 ng/mL. Moreover, the concentration at 2 h in series [1] (plasma, Time = 2 h, read-out: Plasma Concentration After p.o. Dosing, Mean) is 6.2 ng/mL. Also, the solubility in series [2] (setting [5]) and in series [2] (setting [6]) was greater than 400 µM throughout. In series [3], this molecule gave a Papp A→B at 60 min, 5 μM of less than 0.4 ×10⁻⁶ cm/s. Further, the Papp B→A at 60 min, 5 μM in series [3] turned out to be 1.8 ×10⁻⁶ cm/s.
On to `N#CC[C@H]1CC[C@H](n2c(CC(=O)Nc3cc[nH]n3)nc3cnc4[nH]ccc4c32)CC1` [Ex. 74, 2-(1-((1r,4r)-4-(Cyanomethyl)cyclohexyl)-1,6-dihydroimidazo[4,5-d]pyrrolo[2,3-b]pyridin-2-yl)-N-(1H-pyrazol-3-yl)acetamide], for which the concentration at 4 h in series [1] (setting [4]) came out at 4780 ng/g. Also, the solubility in series [2] (setting [5]) is greater than 400 µM. Further, in series [2] (setting [6]), the solubility was greater than 400 µM. In addition, in series [3], the apical-to-basolateral permeability (Papp A→B) at 60 min, 5 μM is less than 0.4 ×10⁻⁶ cm/s and the Papp B→A at 60 min, 5 μM is 1.1 ×10⁻⁶ cm/s.
